Tests used:
Format in all cases: cell-based
human TLR9 = molecular target: T1, human TLR9 (Homo sapiens, UniProt Q9NR96); assay: TLR9 inhibition reporter assay (HEK-Blue cells, SEAP reporter, ODN2006 stimulation); details: HEK-Blue cells overexpressing human TLR9, SEAP reporter, ODN2006 5 nM
T1 construct: host or cells: HEK-Blue cells
T1 sequence (Q9NR96 26-1032): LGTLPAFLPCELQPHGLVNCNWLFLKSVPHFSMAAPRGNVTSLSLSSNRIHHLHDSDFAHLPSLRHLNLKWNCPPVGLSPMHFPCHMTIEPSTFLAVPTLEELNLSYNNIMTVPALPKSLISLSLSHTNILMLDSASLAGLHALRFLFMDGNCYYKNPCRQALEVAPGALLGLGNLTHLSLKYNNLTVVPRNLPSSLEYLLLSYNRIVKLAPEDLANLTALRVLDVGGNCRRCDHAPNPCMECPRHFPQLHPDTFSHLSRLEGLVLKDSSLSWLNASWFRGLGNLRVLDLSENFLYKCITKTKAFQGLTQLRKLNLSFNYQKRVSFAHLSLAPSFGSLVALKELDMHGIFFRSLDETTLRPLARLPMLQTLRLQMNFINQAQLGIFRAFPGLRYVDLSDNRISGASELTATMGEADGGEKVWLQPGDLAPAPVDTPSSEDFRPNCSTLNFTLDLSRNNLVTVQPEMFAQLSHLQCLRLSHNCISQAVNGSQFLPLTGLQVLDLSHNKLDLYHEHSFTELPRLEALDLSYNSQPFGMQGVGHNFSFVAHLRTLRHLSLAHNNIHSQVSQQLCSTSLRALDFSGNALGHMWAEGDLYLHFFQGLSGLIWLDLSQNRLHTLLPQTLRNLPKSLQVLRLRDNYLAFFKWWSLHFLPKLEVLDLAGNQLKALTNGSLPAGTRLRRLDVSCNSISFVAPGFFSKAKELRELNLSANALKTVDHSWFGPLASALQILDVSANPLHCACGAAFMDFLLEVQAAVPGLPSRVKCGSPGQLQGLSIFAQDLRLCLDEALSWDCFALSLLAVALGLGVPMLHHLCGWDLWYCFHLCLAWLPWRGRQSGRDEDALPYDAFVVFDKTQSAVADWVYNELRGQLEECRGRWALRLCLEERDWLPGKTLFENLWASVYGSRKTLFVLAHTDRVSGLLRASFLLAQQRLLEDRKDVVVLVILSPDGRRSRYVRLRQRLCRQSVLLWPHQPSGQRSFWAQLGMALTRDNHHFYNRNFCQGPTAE
Protocol: (§1) TLR7/8/9 Inhibition Reporter Assays
(§2) HEK-Blue™-cells (Invivogen) overexpressing human TLR7, TLR8 or TLR9 receptors were used for screening inhibitors of these receptors using an inducible SEAP (secreted embryonic alkaline phosphatase) reporter gene under the control of the IFN-β minimal promoter fused to five NF-κB and AP-1-binding sites. Briefly, cells are seeded into Greiner 384 well plates (15000 cells per well for TLR7, 20,000 for TLR8 and 25,000 for TLR9) and then treated with test compounds in DMSO to yield a final dose response concentration range of 0.05 nM-50 μM. After a 30 minute compound pre-treatment al room temperature, the cells are then stimulated with a TLR7 ligand (gardiquimod at a final concentration of 7.5 μM), TLR8 ligand (R848 at a final concentration of 15.9 μM) or TLR9 ligand (ODN2006 at a final concentration of 5 nM) to activate NF-κB and AP-1 which induce the production of SEAP. After a 22 hour incubation at 37° C., 5% CO2, SEAP levels are determined with the addition of HEK-Blue™ Detection reagent (Invivogen), a cell culture medium that allows for detection of SEAP, according to manufacturer's specifications. The percent inhibition is determined as the % reduction in the HEK-Blue signal present in wells treated with agonist plus DMSO alone compared to wells treated with a known inhibitor.

human TLR7 = molecular target: T2, human TLR7 (Homo sapiens, UniProt Q9NYK1); assay: TLR7 inhibition reporter assay (HEK-Blue cells, SEAP reporter, gardiquimod stimulation); details: HEK-Blue cells overexpressing human TLR7, SEAP reporter, gardiquimod 7.5 μM
T2 construct: host or cells: HEK-Blue cells
T2 sequence (Q9NYK1 27-1049): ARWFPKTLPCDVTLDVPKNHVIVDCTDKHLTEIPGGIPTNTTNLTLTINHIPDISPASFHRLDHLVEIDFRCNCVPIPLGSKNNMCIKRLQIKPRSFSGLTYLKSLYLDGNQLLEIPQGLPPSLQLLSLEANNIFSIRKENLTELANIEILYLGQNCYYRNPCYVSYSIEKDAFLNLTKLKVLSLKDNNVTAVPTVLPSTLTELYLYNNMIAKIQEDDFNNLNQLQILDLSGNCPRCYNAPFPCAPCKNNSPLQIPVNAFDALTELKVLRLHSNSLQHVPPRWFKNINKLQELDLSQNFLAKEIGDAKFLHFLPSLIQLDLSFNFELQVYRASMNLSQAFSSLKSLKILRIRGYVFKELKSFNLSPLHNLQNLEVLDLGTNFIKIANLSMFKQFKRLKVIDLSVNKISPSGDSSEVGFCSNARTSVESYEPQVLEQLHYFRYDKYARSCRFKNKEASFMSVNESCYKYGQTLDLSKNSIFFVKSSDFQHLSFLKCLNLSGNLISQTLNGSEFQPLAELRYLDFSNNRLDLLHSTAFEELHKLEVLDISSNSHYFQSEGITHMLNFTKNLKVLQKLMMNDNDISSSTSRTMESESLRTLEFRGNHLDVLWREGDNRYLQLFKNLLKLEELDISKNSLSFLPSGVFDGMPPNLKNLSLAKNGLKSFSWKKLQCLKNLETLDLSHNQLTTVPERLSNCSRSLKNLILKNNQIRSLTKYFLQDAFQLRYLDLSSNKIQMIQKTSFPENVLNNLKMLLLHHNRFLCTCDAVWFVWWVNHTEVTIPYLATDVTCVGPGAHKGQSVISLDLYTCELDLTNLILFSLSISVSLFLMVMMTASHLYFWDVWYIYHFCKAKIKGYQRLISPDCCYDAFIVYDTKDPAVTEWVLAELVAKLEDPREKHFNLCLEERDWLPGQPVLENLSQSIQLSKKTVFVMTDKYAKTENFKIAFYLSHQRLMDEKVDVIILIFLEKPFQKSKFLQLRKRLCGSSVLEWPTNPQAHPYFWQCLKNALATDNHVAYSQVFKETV
Protocol: as §1, §2

human TLR8 = molecular target: T3, human TLR8 (Homo sapiens, UniProt Q9NR97); assay: TLR8 inhibition reporter assay (HEK-Blue cells, SEAP reporter, R848 stimulation); details: HEK-Blue cells overexpressing human TLR8, SEAP reporter, R848 15.9 μM
T3 construct: host or cells: HEK-Blue cells
T3 sequence (Q9NR97 27-1041): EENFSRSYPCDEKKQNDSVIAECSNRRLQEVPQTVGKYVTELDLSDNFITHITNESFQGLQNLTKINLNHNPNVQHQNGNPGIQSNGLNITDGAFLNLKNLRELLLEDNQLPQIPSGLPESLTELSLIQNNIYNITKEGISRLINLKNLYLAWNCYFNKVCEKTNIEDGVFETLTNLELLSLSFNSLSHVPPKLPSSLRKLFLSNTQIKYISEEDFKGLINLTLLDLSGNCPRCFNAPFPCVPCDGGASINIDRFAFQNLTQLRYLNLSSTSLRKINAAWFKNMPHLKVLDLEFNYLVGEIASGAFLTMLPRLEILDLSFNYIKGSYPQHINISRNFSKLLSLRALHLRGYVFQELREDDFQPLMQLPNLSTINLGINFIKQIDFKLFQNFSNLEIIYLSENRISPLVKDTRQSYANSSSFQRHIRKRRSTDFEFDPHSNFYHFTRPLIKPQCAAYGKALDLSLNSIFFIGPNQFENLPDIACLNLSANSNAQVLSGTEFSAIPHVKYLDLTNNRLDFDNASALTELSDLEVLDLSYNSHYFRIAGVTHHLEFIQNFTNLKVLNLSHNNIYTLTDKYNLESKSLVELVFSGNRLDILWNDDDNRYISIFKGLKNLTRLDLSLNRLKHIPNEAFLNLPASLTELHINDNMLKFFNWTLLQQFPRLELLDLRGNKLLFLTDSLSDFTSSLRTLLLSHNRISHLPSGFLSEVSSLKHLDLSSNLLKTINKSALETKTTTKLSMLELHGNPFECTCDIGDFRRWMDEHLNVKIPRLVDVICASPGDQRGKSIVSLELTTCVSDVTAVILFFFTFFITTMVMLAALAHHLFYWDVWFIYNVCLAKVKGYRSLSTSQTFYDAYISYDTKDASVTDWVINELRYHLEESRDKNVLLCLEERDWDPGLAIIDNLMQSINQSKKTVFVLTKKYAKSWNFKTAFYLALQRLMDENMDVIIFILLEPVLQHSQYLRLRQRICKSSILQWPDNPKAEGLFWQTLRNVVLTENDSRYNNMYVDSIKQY
Protocol: as §1, §2

Compound: CCN(C)C1CCC(c2ccc3[nH]c(-c4cc(OC)c5ncnn5c4)c(C(C)C)c3c2)CC1 (single isomer, unassigned) [Example 66]
- IC50 (human TLR9): 1170 nM
- IC50 (human TLR7): 0.85 nM
- IC50 (human TLR8): 4.4 nM

Compound: COc1cc(-c2[nH]c3ccc(C4CCC(NCC(F)F)CC4)cc3c2C(C)C)cn2ncnc12 (single isomer, unassigned) [Example 67]
- IC50 (human TLR9): 5760 nM
- IC50 (human TLR7): 0.17 nM
- IC50 (human TLR8): 1.3 nM

Compound: COc1cc(-c2[nH]c3ccc(C4CCC(NCC(F)F)CC4)cc3c2C(C)C)cn2ncnc12 (single isomer, unassigned) [Example 68]
- IC50 (human TLR9): 11600 nM
- IC50 (human TLR7): 0.85 nM
- IC50 (human TLR8): 6.8 nM

Compound: COCCN(C)C1CCC(c2ccc3[nH]c(-c4cc(OC)c5ncnn5c4)c(C(C)C)c3c2)CC1 (single isomer, unassigned) [Example 72]
- IC50 (human TLR9): 1280 nM
- IC50 (human TLR7): 0.3 nM
- IC50 (human TLR8): 1.2 nM

Compound: COCCN(C)C1CCC(c2ccc3[nH]c(-c4cc(OC)c5ncnn5c4)c(C(C)C)c3c2)CC1 (single isomer, unassigned) [Example 79]
- IC50 (human TLR9): 2580 nM
- IC50 (human TLR7): 2 nM
- IC50 (human TLR8): 5.7 nM

Compound: Cc1c(-c2[nH]c3ccc(C4CCC(NC5COC5)CC4)cc3c2C(C)C)cn2ncnc2c1C (single isomer, unassigned) [Example 85]
- IC50 (human TLR9): 2880 nM
- IC50 (human TLR7): 0.35 nM
- IC50 (human TLR8): 0.53 nM

Compound: Cc1c(-c2[nH]c3ccc(C4CCC(NC5COC5)CC4)cc3c2C(C)C)cn2ncnc2c1C (single isomer, unassigned) [Example 86]
- IC50 (human TLR9): 5220 nM
- IC50 (human TLR7): 2 nM
- IC50 (human TLR8): 2.6 nM

Compound: Cc1c(-c2[nH]c3ccc(C4CCC(N5CCOCC5)CC4)cc3c2C(C)C)cn2ncnc2c1C (single isomer, unassigned) [Example 92]
- IC50 (human TLR9): 2680 nM
- IC50 (human TLR7): 0.39 nM
- IC50 (human TLR8): 0.33 nM

Compound: Cc1c(-c2[nH]c3ccc(C4CCC(N5CCOCC5)CC4)cc3c2C(C)C)cn2ncnc2c1C (single isomer, unassigned) [Example 93]
- IC50 (human TLR9): 3800 nM
- IC50 (human TLR7): 3 nM
- IC50 (human TLR8): 3.8 nM

Compound: COc1cc(-c2[nH]c3ccc(C4CCC(NCC(F)(F)F)CC4)cc3c2C(C)C)cn2ncnc12 (single isomer, unassigned) [Example 108]
- IC50 (human TLR9): 19800 nM
- IC50 (human TLR7): 7 nM
- IC50 (human TLR8): 38 nM

Compound: COc1cc(-c2[nH]c3ccc(C4CCC(NCC(F)(F)F)CC4)cc3c2C(C)C)cn2ncnc12 (single isomer, unassigned) [Example 110]
- IC50 (human TLR9): 37000 nM
- IC50 (human TLR7): 24 nM
- IC50 (human TLR8): 396 nM

Compound: Cc1cc(-c2[nH]c3ccc(C4CCC(N(C)C)CC4)cc3c2C(C)C)cc(C)n1 (single isomer, unassigned) [Example 114]
- IC50 (human TLR9): 515 nM
- IC50 (human TLR7): 4 nM
- IC50 (human TLR8): 20 nM

Compound: COc1cc(-c2[nH]c3ccc(C4CCC(NC(C)=O)CC4)cc3c2C(C)C)cn2ncnc12 (single isomer, unassigned) [Example 115, N-(4-(3-isopropyl-2-(8-methoxy-[1,2,4]triazolo[1,5-a]pyridin-6-yl)-1H-indol-5-yl)cyclohexyl)acetamide]
- IC50 (human TLR9): 16100 nM
- IC50 (human TLR7): 1 nM
- IC50 (human TLR8): 13 nM

Compound: COc1cc(-c2[nH]c3ccc(C4CCC(NC(C)=O)CC4)cc3c2C(C)C)cn2ncnc12 (single isomer, unassigned) [Example 116, N-(4-(3-isopropyl-2-(8-methoxy-[1,2,4]triazolo[1,5-a]pyridin-6-yl)-1H-indol-5-yl)cyclohexyl)acetamide]
- IC50 (human TLR9): > 50000 nM
- IC50 (human TLR7): 9 nM
- IC50 (human TLR8): 61 nM

Compound: CNCC(=O)NC1CCC(c2ccc3[nH]c(-c4cc(C)nc(C)c4)c(C(C)C)c3c2)CC1 (single isomer, unassigned) [Example 129]
- IC50 (human TLR9): 544 nM
- IC50 (human TLR7): 0.3 nM
- IC50 (human TLR8): 3.9 nM

Compound: CNCC(=O)NC1CCC(c2ccc3[nH]c(-c4cc(C)nc(C)c4)c(C(C)C)c3c2)CC1 (single isomer, unassigned) [Example 130]
- IC50 (human TLR9): 236 nM
- IC50 (human TLR7): 5 nM
- IC50 (human TLR8): 33 nM

Compound: CNC1CCC(c2ccc3[nH]c(-c4cc(OC)c5ncnn5c4)c(C(C)C)c3c2)CC1 (single isomer, unassigned) [Example 145, 4-(3-isopropyl-2-(8-methoxy-[1,2,4]triazolo[1,5-a]pyridin-6-yl)-1H-indol-5-yl)-N-methylcyclohexanamine]
- IC50 (human TLR9): 569 nM
- IC50 (human TLR7): 0.22 nM
- IC50 (human TLR8): 0.73 nM

From US11878975B2, “Substituted indole compounds useful as TLR inhibitors” (BRISTOL-MYERS SQUIBB COMPANY, priority 2017, dated 2024)
